Test results from PubChem BioAssay AID1259407 (Chemical Carcinogenesis Research Information System (CCRIS), 2018).
The source made the active and inactive calls. No rule for the calls is given here.

System: CCRIS mutagenicity, Ames/micronucleus/aberration tests
Assay: CCRIS mutagenicity studies
[1] = Test System: AMES SALMONELLA TYPHIMURIUM, Strain/Indicator: TA98, Metabolic Activation: NONE, Method: PREINCUBATION
[2] = Test System: AMES SALMONELLA TYPHIMURIUM, Strain/Indicator: TA100, Metabolic Activation: HAMSTER, LIVER, S-9, AROCLOR 1254 (10%), Method: PREINCUBATION
[3] = Test System: AMES SALMONELLA TYPHIMURIUM, Strain/Indicator: TA100, Metabolic Activation: NONE, Method: PREINCUBATION
[4] = Test System: AMES SALMONELLA TYPHIMURIUM, Strain/Indicator: TA1535, Metabolic Activation: NONE, Method: PREINCUBATION
[5] = Test System: AMES SALMONELLA TYPHIMURIUM, Strain/Indicator: TA98, Metabolic Activation: NONE, Method: STANDARD PLATE
[6] = Test System: AMES SALMONELLA TYPHIMURIUM, Strain/Indicator: TA100, Metabolic Activation: NONE, Method: STANDARD PLATE
[7] = Test System: AMES SALMONELLA TYPHIMURIUM, Strain/Indicator: TA1535, Metabolic Activation: NONE, Method: STANDARD PLATE

With `CC1CC(OC(=O)c2ccccc2O)CC(C)(C)C1` (stereo not given) the mutagenic call (Test System: AMES SALMONELLA TYPHIMURIUM, Strain/Indicator: TA98, Metabolic Activation: HAMSTER, LIVER, S-9, AROCLOR 1254 (10%), Method: PREINCUBATION) was “inactive; negative”, the mutagenic call [1] was “inactive; negative” and the mutagenic call (Test System: AMES SALMONELLA TYPHIMURIUM, Strain/Indicator: TA98, Metabolic Activation: RAT, LIVER, S-9, AROCLOR 1254 (10%), Method: PREINCUBATION) was “inactive; negative”. The mutagenic call [2] was “inactive; negative”, the mutagenic call [3] was “inactive; negative” and the mutagenic call (Test System: AMES SALMONELLA TYPHIMURIUM, Strain/Indicator: TA100, Metabolic Activation: RAT, LIVER, S-9, AROCLOR 1254 (10%), Method: PREINCUBATION) was “inactive; negative”. For the same compound, the mutagenic call (Test System: AMES SALMONELLA TYPHIMURIUM, Strain/Indicator: TA1535, Metabolic Activation: HAMSTER, LIVER, S-9, AROCLOR 1254 (10%), Method: PREINCUBATION) was “inactive; negative”, the mutagenic call [4] was “inactive; negative” and the mutagenic call (Test System: AMES SALMONELLA TYPHIMURIUM, Strain/Indicator: TA1535, Metabolic Activation: RAT, LIVER, S-9, AROCLOR 1254 (10%), Method: PREINCUBATION) was “inactive; negative”. For the same compound, the mutagenic call (Test System: AMES SALMONELLA TYPHIMURIUM, Strain/Indicator: TA1537, Metabolic Activation: HAMSTER, LIVER, S-9, AROCLOR 1254 (10%), Method: PREINCUBATION) was “inactive; negative”, the mutagenic call (Test System: AMES SALMONELLA TYPHIMURIUM, Strain/Indicator: TA1537, Metabolic Activation: NONE, Method: PREINCUBATION) was “inactive; negative” and the mutagenic call (Test System: AMES SALMONELLA TYPHIMURIUM, Strain/Indicator: TA1537, Metabolic Activation: RAT, LIVER, S-9, AROCLOR 1254 (10%), Method: PREINCUBATION) was “inactive; negative”.
In the case of `Cc1cnc2c(n1)c(C)c(C)c1c2nc(N)n1C`, the mutagenic call (Test System: AMES SALMONELLA TYPHIMURIUM, Strain/Indicator: TA98, Metabolic Activation: RAT, LIVER, S-9, AROCLOR 1254, Method: STANDARD PLATE) was “active; positive”.
For `O=[N+]([O-])c1ccc2ccc3cc4c(c5ccc1c2c35)C=C[C@H](O)[C@H]4O`, the mutagenic call (Test System: AMES SALMONELLA TYPHIMURIUM, Strain/Indicator: TA98(1,8-DNP6), Metabolic Activation: NONE) was “active; positive”, the mutagenic call (Test System: AMES SALMONELLA TYPHIMURIUM, Strain/Indicator: TA98(1,8-DNP6), Metabolic Activation: RAT, LIVER, S-9, AROCLOR 1254) was “active; positive” and the mutagenic call (Test System: AMES SALMONELLA TYPHIMURIUM, Strain/Indicator: TA98(NR), Metabolic Activation: NONE) was “active; positive”. The mutagenic call (Test System: AMES SALMONELLA TYPHIMURIUM, Strain/Indicator: TA98(NR), Metabolic Activation: RAT, LIVER, S-9, AROCLOR 1254) was “active; positive”, the mutagenic call (Test System: AMES SALMONELLA TYPHIMURIUM, Strain/Indicator: TA98, Metabolic Activation: NONE) was “active; positive” and the mutagenic call (Test System: AMES SALMONELLA TYPHIMURIUM, Strain/Indicator: TA98, Metabolic Activation: RAT, LIVER, S-9, AROCLOR 1254) was “active; positive”. For the same compound, the mutagenic call (Test System: CHINESE HAMSTER OVARY, Strain/Indicator: CHO-K1-BH4 (HGPRT), Metabolic Activation: NONE) was “active; positive” and the mutagenic call (Test System: CHINESE HAMSTER OVARY, Strain/Indicator: CHO-K1-BH4 (HGPRT), Metabolic Activation: RAT, LIVER, S-9, 3-METHYLCHOLANTHRENE) was “active; positive”.
`CN(C)CCCNc1c2ccccc2nc2cccc([N+](=O)[O-])c12` was tested, and the mutagenic call (Test System: AMES SALMONELLA TYPHIMURIUM, Strain/Indicator: TA98(1,8-DNP6), Metabolic Activation: NONE, Method: STANDARD PLATE) was “active; positive”, the mutagenic call (Test System: AMES SALMONELLA TYPHIMURIUM, Strain/Indicator: TA98(1,8-DNP6), Metabolic Activation: RAT, LIVER, S-9, Method: STANDARD PLATE) was “active; positive” and the mutagenic call (Test System: AMES SALMONELLA TYPHIMURIUM, Strain/Indicator: TA98(NR), Metabolic Activation: NONE, Method: STANDARD PLATE) was “active; positive”. For the same compound, the mutagenic call (Test System: AMES SALMONELLA TYPHIMURIUM, Strain/Indicator: TA98(NR), Metabolic Activation: RAT, LIVER, S-9, Method: STANDARD PLATE) was “active; positive”, the mutagenic call [5] was “active; positive” and the mutagenic call (Test System: AMES SALMONELLA TYPHIMURIUM, Strain/Indicator: TA98, Metabolic Activation: RAT, LIVER, S-9, Method: STANDARD PLATE) was “active; positive”. The mutagenic call [6] was “active; positive”, the mutagenic call [7] was “inactive; negative” and the mutagenic call (Test System: AMES SALMONELLA TYPHIMURIUM, Strain/Indicator: TA1537, Metabolic Activation: NONE, Method: STANDARD PLATE) was “active; positive”. For the same compound, the mutagenic call (Test System: AMES SALMONELLA TYPHIMURIUM, Strain/Indicator: TA1537 PKM101, Metabolic Activation: NONE, Method: STANDARD PLATE) was “active; positive”, the mutagenic call (Test System: AMES SALMONELLA TYPHIMURIUM, Strain/Indicator: TA1538, Metabolic Activation: NONE, Method: STANDARD PLATE) was “active; positive” and the mutagenic call (Test System: CHINESE HAMSTER V-79, Strain/Indicator: V-79/6-THIOGUANINE, Metabolic Activation: NONE, Method: STANDARD PLATE) was “active; positive”. The mutagenic call (Test System: CHINESE HAMSTER V-79, Strain/Indicator: V-79/OUABAIN, Metabolic Activation: NONE, Method: STANDARD PLATE) was “active; positive”, the mutagenic call (Test System: Escherichia coli, Strain/Indicator: CC107 (G6 to G7 frameshifts), Metabolic Activation: None, Method: Modified preincubation) was “active; positive” and the mutagenic call (Test System: Escherichia coli, Strain/Indicator: CC108 (G6 to G5 frameshifts), Metabolic Activation: None) was “active; positive”. The mutagenic call (Test System: Escherichia coli, Strain/Indicator: CC109 (CG5 to CG4 frameshifts), Metabolic Activation: None, Method: Modified preincubation) was “active; positive” and the mutagenic call (Test System: Escherichia coli, Strain/Indicator: CC111 (A7 to A6 frameshifts), Metabolic Activation: None, Method: Modified preincubation) was “inactive; negative”.
With `CC(=O)Nc1ccc(C)cc1` the mutagenic call (Test System: AMES SALMONELLA TYPHIMURIUM, Strain/Indicator: TA97, Metabolic Activation: HAMSTER, LIVER, S-9, AROCLOR 1254 (10 OR 30%), Method: PREINCUBATION) was “inactive; negative”, the mutagenic call (Test System: AMES SALMONELLA TYPHIMURIUM, Strain/Indicator: TA97, Metabolic Activation: NONE, Method: PREINCUBATION) was “inactive; negative” and the mutagenic call (Test System: AMES SALMONELLA TYPHIMURIUM, Strain/Indicator: TA97, Metabolic Activation: RAT, LIVER, S-9, AROCLOR 1254 (10 OR 30%), Method: PREINCUBATION) was “inactive; negative”. For the same compound, the mutagenic call (Test System: AMES SALMONELLA TYPHIMURIUM, Strain/Indicator: TA98, Metabolic Activation: HAMSTER, LIVER, S-9, AROCLOR 1254 (10 OR 30%), Method: PREINCUBATION) was “inactive; negative”, the mutagenic call [1] was “inactive; negative” and the mutagenic call (Test System: AMES SALMONELLA TYPHIMURIUM, Strain/Indicator: TA98, Metabolic Activation: RAT, LIVER, S-9, AROCLOR 1254 (10 OR 30%), Method: PREINCUBATION) was “inactive; negative”. The mutagenic call [2] was “inactive; negative”, the mutagenic call (Test System: AMES SALMONELLA TYPHIMURIUM, Strain/Indicator: TA100, Metabolic Activation: HAMSTER, LIVER, S-9, AROCLOR 1254 (30%), Method: PREINCUBATION) was “inactive; negative” and the mutagenic call [3] was “inactive; negative”. For the same compound, the mutagenic call (Test System: AMES SALMONELLA TYPHIMURIUM, Strain/Indicator: TA100, Metabolic Activation: RAT, LIVER, S-9, AROCLOR 1254 (10 OR 30%), Method: PREINCUBATION) was “inactive; negative”, the mutagenic call (Test System: AMES SALMONELLA TYPHIMURIUM, Strain/Indicator: TA1535, Metabolic Activation: HAMSTER, LIVER, S-9, AROCLOR 1254 (10 OR 30%), Method: PREINCUBATION) was “inactive; negative” and the mutagenic call [4] was “inactive; negative”. For the same compound, the mutagenic call (Test System: AMES SALMONELLA TYPHIMURIUM, Strain/Indicator: TA1535, Metabolic Activation: RAT, LIVER, S-9, AROCLOR 1254 (10 OR 30%), Method: PREINCUBATION) was “inactive; negative”.
In the case of `CC(=O)N(C)N=O`, the mutagenic call [7] was “active; positive” and the mutagenic call (Test System: E. COLI, Strain/Indicator: WU3610, Metabolic Activation: NONE, Method: SUSPENSION/PLATE) was “active; positive”.
With `CCOC(=O)OC(=O)OCC` the mutagenic call [5] was “inactive; negative” and the mutagenic call [6] was “inactive; negative”.
